Laboratory results: ChEMBL document CHEMBL1138574, “Regioselective synthesis and stereochemical structure of anti-tumor active dispiro[3H-indole-3,2'-pyrrolidine-3',3''-piperidine]-2(1H),4''-diones” (2009)

Columns and labels:
Assay type in all cases: functional
EKVX = assay: Antitumor activity against human EKVX cells assessed as cell growth at 10 uM after 48 hrs by sulforhodamine B assay; settings: read-out: Activity
NCI-H226 = assay: Antitumor activity against human NCI-H226 cells assessed as cell growth at 10 uM after 48 hrs by sulforhodamine B assay; settings: NCI-H226, 48 h, read-out: Activity
NCI-H460 = assay: Antitumor activity against human NCI-H460 cells assessed as cell growth at 10 uM after 48 hrs by sulforhodamine B assay; settings: NCI-H460, 48 h, read-out: Activity
HT-29 = assay: Antitumor activity against human HT-29 cells assessed as cell growth at 10 uM after 48 hrs by sulforhodamine B assay; settings: HT-29, 48 h, read-out: Activity
KM12 = assay: Antitumor activity against human KM12 cells assessed as cell growth at 10 uM after 48 hrs by sulforhodamine B assay; settings: KM12, 48 h, read-out: Activity
SW-620 = assay: Antitumor activity against human SW620 cells assessed as cell growth at 10 uM after 48 hrs by sulforhodamine B assay; settings: SW-620, 48 h, read-out: Activity
MDA-MB-231 = assay: Antitumor activity against human MDA-MB-231 cells assessed as cell growth at 10 uM after 48 hrs by sulforhodamine B assay; settings: MDA-MB-231, 48 h, read-out: Activity
MDA-MB-435 = assay: Antitumor activity against human MDA-MB-435 cells assessed as cell growth at 10 uM after 48 hrs by sulforhodamine B assay; settings: MDA-MB-435, 48 h, read-out: Activity
IGROV-1 = assay: Antitumor activity against human IGROV1 cells assessed as cell growth at 10 uM after 48 hrs by sulforhodamine B assay; settings: IGROV-1, 48 h, read-out: Activity
OVCAR-3 = assay: Antitumor activity against human OVCAR-3 cells assessed as cell growth at 10 uM after 48 hrs by sulforhodamine B assay; settings: OVCAR-3, 48 h, read-out: Activity
OVCAR-4 = assay: Antitumor activity against human OVCAR4 cells assessed as cell growth at 10 uM after 48 hrs by sulforhodamine B assay; settings: OVCAR-4, 48 h, read-out: Activity
OVCAR-5 = assay: Antitumor activity against human OVCAR5 cells assessed as cell growth at 10 uM after 48 hrs by sulforhodamine B assay; settings: OVCAR-5, 48 h, read-out: Activity
OVCAR-8 = assay: Antitumor activity against human OVCAR8 cells assessed as cell growth at 10 uM after 48 hrs by sulforhodamine B assay; settings: OVCAR-8, 48 h, read-out: Activity
HL-60(TB) = assay: Antitumor activity against human HL-60(TB) cells assessed as cell growth at 10 uM after 48 hrs by sulforhodamine B assay; settings: HL-60, 48 h, read-out: Activity
K562 = assay: Antitumor activity against human K562 cells assessed as cell growth at 10 uM after 48 hrs by sulforhodamine B assay; settings: K562, 48 h, read-out: Activity
MOLT-4 = assay: Antitumor activity against human MOLT4 cells assessed as cell growth at 10 uM after 48 hrs by sulforhodamine B assay; settings: MOLT-4, 48 h, read-out: Activity
[1] = Antitumor activity against human […] cells assessed as cell growth at 10 uM after 48 hrs by sulforhodamine B assay; settings: read-out: Activity
A498 = assay: Antitumor activity against human A498 cells assessed as cell growth at 10 uM after 48 hrs by sulforhodamine B assay; settings: A498, 48 h, read-out: Activity
ACHN = assay: Antitumor activity against human ACHN cells assessed as cell growth at 10 uM after 48 hrs by sulforhodamine B assay; settings: read-out: Activity
UO-31 = assay: Antitumor activity against human UO31 cells assessed as cell growth at 10 uM after 48 hrs by sulforhodamine B assay; settings: UO-31, 48 h, read-out: Activity
M14 = assay: Antitumor activity against human M14 cells assessed as cell growth at 10 uM after 48 hrs by sulforhodamine B assay; settings: M14, 48 h, read-out: Activity
DU-145 = assay: Antitumor activity against human DU145 cells assessed as cell growth at 10 uM after 48 hrs by sulforhodamine B assay; settings: DU-145, 48 h, read-out: Activity
PC-3 = assay: Antitumor activity against human PC3 cells assessed as cell growth at 10 uM after 48 hrs by sulforhodamine B assay; settings: PC-3, 48 h, read-out: Activity
SNB-19 = assay: Antitumor activity against human SNB19 cells assessed as cell growth at 10 uM after 48 hrs by sulforhodamine B assay; settings: SNB-19, 48 h, read-out: Activity
Rattus norvegicus [2] = assay: Antiinflammatory activity in Wister albino rat assessed as inhibition of carrageenan-induced paw oedema at 50 mg/kg, ip administered 1 hr before carrageenan challenge measured after 1 hr of induction of inflammation relative to control; settings: route intraperitoneal
Rattus norvegicus [3] = assay: Antiinflammatory activity in Wister albino rat assessed as inhibition of carrageenan-induced paw oedema at 50 mg/kg, ip administered 1 hr before carrageenan challenge measured after 2 hrs of induction of inflammation relative to control; settings: route intraperitoneal
Rattus norvegicus [4] = assay: Antiinflammatory activity in Wister albino rat assessed as inhibition of carrageenan-induced paw oedema at 50 mg/kg, ip administered 1 hr before carrageenan challenge measured after 24 hrs of induction of inflammation relative to control; settings: route intraperitoneal
SF-295 = assay: Antitumor activity against human SF295 cells assessed as cell growth at 10 uM after 48 hrs by sulforhodamine B assay; settings: SF-295, 48 h, read-out: Activity

| Structure (SMILES) | growth at 10 µM (EKVX) [%] | growth at 10 µM (NCI-H226) [%] | growth at 10 µM (NCI-H460) [%] | growth at 10 µM (HT-29) [%] | growth at 10 µM (KM12) [%] | growth at 10 µM (SW-620) [%] | growth at 10 µM (MDA-MB-231) [%] | growth at 10 µM (MDA-MB-435) [%] | growth at 10 µM (IGROV-1) [%] | growth at 10 µM (OVCAR-3) [%] | growth at 10 µM (OVCAR-4) [%] | growth at 10 µM (OVCAR-5) [%] | growth at 10 µM (OVCAR-8) [%] | growth at 10 µM (HL-60(TB)) [%] | growth at 10 µM (K562) [%] | growth at 10 µM (MOLT-4) [%] | growth at 10 µM [1] [%] | growth at 10 µM (A498) [%] | growth at 10 µM (ACHN) [%] | growth at 10 µM (UO-31) [%] | further results |
| --- | --- | --- | --- | --- | --- | --- | --- | --- | --- | --- | --- | --- | --- | --- | --- | --- | --- | --- | --- | --- | --- |
| COc1ccc(/C=C2\CN(C)C[C@@]3(C2=O)[C@@H](c2ccccc2)CN(C)[C@@]32C(=O)Nc3ccccc32)cc1 | 64.2 | 63 | 52.3 | 58.1 | 37.7 | 47.8 | 59.4 | 60.7 | 79.4 | 50.3 | 52.7 | 92.5 | 52.4 | 21.5 | 73.3 | 17.2 | 20.7 | 32.5 | 49.1 | 40.4 | growth at 10 µM (M14): 55.6%; growth at 10 µM (DU-145): 70.3%; growth at 10 µM (PC-3): 21%; growth at 10 µM (SNB-19): 61.6%; inhibition in vivo at 50 mg/kg (Rattus norvegicus [2]): 80.1%; inhibition in vivo at 50 mg/kg (Rattus norvegicus [3]): 76.4%; inhibition in vivo at 50 mg/kg (Rattus norvegicus [4]): 52.9% |
| CN1C/C(=C\c2ccc(Cl)cc2)C(=O)[C@]2(C1)[C@@H](c1ccc(Cl)cc1)CN(C)[C@@]21C(=O)Nc2ccccc21 | 37.2 | 64.4 | 66.7 | 59.5 | 64.2 | 57.7 | 74.9 | 61.1 | 81.8 | 48.4 | 49.6 | 94.2 | 69.4 | 41.6 | 45.1 | 37.4 | 38.5 | 55.3 | 63.6 | 43.2 | growth at 10 µM (M14): 78.3%; growth at 10 µM (DU-145): 83.8%; growth at 10 µM (PC-3): 24.9%; growth at 10 µM (SF-295): 64.5%; growth at 10 µM (SNB-19): 76.5%; inhibition in vivo at 50 mg/kg (Rattus norvegicus [2]): 83.1%; inhibition in vivo at 50 mg/kg (Rattus norvegicus [3]): 63%; inhibition in vivo at 50 mg/kg (Rattus norvegicus [4]): 38.2% |
| CN1C/C(=C\c2ccc(Cl)cc2)C(=O)[C@]2(C1)[C@@H](c1ccc(Cl)cc1)CN(C)[C@@]21C(=O)N(C)c2ccccc21 | 42.1 | 58.6 | 71.5 | 68.4 | 78.7 | 68.1 | 70.4 | 87.8 | 92.1 | 60.5 | 43.1 | 87.7 | 79.5 | 16.6 | 30.4 | 43.2 | 38 | 69.4 | 57.5 | 56.6 | growth at 10 µM (M14): 77.8%; growth at 10 µM (DU-145): 88.4%; growth at 10 µM (PC-3): 32.5%; growth at 10 µM (SF-295): 65.6%; growth at 10 µM (SNB-19): 77.3%; inhibition in vivo at 50 mg/kg (Rattus norvegicus [2]): 82.3%; inhibition in vivo at 50 mg/kg (Rattus norvegicus [3]): 62.2%; inhibition in vivo at 50 mg/kg (Rattus norvegicus [4]): 49.3% |
| CN1C/C(=C\c2ccc(-c3cccs3)cc2)C(=O)[C@]2(C1)[C@@H](c1ccc(-c3cccs3)cc1)CN(C)[C@@]21C(=O)N(C)c2ccccc21 | 47.1 | 58 | 52.1 | 56.1 | 45.2 | 53.8 | 52.4 | 40.6 | 81.4 | 33.6 | 37.3 | 103 | 65.7 | 22.6 | 59.5 | 27.2 | 10.6 | 46.5 | 56.5 | 45.4 | growth at 10 µM (M14): 58.5%; growth at 10 µM (DU-145): 67.4%; growth at 10 µM (PC-3): 17.8%; growth at 10 µM (SNB-19): 65.3%; inhibition in vivo at 50 mg/kg (Rattus norvegicus [2]): 84.7%; inhibition in vivo at 50 mg/kg (Rattus norvegicus [3]): 68.3%; inhibition in vivo at 50 mg/kg (Rattus norvegicus [4]): 74.3% |
